Holding throughout (format): cell-based
Assay [1] has as its system P. falciparum (highly chloroquine-resistant strain Fcm29-Cameroon). As to the kind of experiment: Antimalarial activity test (radioactive micromethod of Desjardins). Conditions: Plasmodium falciparum, Erythrocyte, infected human erythrocytes, 48 h, tritiated hypoxanthine incorporation. The method, then:
Antimalarial Activity Test
The P. falciparum strains are cultured in solutions of RPM! […] For each assay, the parasites are incubated with selected concentrations of drugs for 48 h at 37° C. in a humid atmosphere and at 5% CO2. Artemisinin, artesunate and also chloroquine diphosphate are used as reference molecules. The first dilution of the drug is prepared at 1 mg/ml in dimethyl sulphoxide. The range of successive daughter solution dilutions is also prepared in dimethyl sulphoxide. […] These dilutions are then added to the parasites in culture in the microplates. […] The growth of the parasites is measured by incorporation of tritiated hypoxanthine (added 24 h after the beginning of the exposure to the drug) compared with the incorporation in the absence of drug.

Assay [2] relates to AKT protein phosphorylated on serine 473 (P-AKT-S473) in PC3 human prostate carcinoma line. As to the kind of experiment: Study of pAKT expression in PC3 human prostate carcinoma cells measured by the MSD Multi-spot Biomarker Detection technique (Test B). Conditions: MSD sandwich immunoassay, 1 to 2 h incubation, absolute IC50, mean of 2 experiments. Here is the method: The inhibitory activity of the molecules on AKT phosphorylation is measured either by western blotting using the technique described below, or by the MSD Multi-spot Biomarker detection technique from Meso Scale Discovery also described below.
Study of pAKT Expression in PC3Human Prostate Carcinoma Cells Measured by the MSD Multi-Spot Biomarker Detection Technique from Meso Scale Discovery (Test B):
The primary antibody specific for P-AKT-S473 (Kit #K151CAD) is coated onto an electrode in each well of the 96-well plates of the MSD kit: after the addition of a protein lysate to each well, the signal is visualised by adding a secondary detection antibody labelled with an electrochemiluminescent compound. The procedure followed is that described in the kit.
On day 2, the cells are incubated in the presence or absence of the test products for 1 to 2 h at 37° C. in the presence of 5% of CO2. The molecules, diluted in dimethyl sulphoxide (DMSO Sigma #D2650), are added from a 20-times concentrated stock solution, the final percentage of DMSO being 0.1%.
After this incubation, the cells are lysed for the preparation of the proteins. […] At this stage, the plates containing the lysates can be frozen at −20° C. or at −80° C.
The wells of the 96-well plates of the MSD kit are saturated for 1 h at ambient temperature with the blocking solution of the MSD kit. Four washes are carried out with 150 μl of Tris Wash Buffer of the MSD kit. The lysates previously prepared are transferred into the 96-well multi-spot plates of the MSD kit and incubated for 1 h at ambient temperature, with shaking. Four washes are carried out with 150 μl of Tris Wash Buffer of the MSD kit. 25 μl of the MSD sulfo-tag detection antibody solution are added to the wells and incubated for 1 h at ambient temperature, with shaking. Four washes are carried out with 150 μl of Tris Wash Buffer of the MSD kit. 150 μl of Read Buffer of the MSD kit are added to the wells and the plates are read immediately on the S12400 instrument from Meso Scale Discovery.
The instrument measures a signal for each well. Wells without cells and containing the lysis buffer serve to determine the background noise that will be subtracted from all the measurements (min). The wells containing cells in the absence of product and in the presence of 0.1% DMSO are considered to be the 100% signal (max). The percentage inhibition is calculated for each concentration of test product according to the following formula: (1−((test−min)/(max−min)))×100.
2 independent experiments make it possible to calculate the mean of the IC50 values.

Assay [3] relates to translocation of the LC3 protein in Hela GFP-LC3 cells. The assay can be described thus: Study of the translocation of the LC3 protein in Hela human cells, measured by image analysis cytometry (Test C, autophagy). Conditions: Hela GFP-LC3 cells with LC3 granulations, EBSS + 10 μM hydroxychloroquine, 2 h, absolute IC50. Here is the method:
The inhibitory activity of the molecules on autophagy is measured by the translocation of the LC3 protein from the cytoplasm to the autophagosomes. For this, Hela cells were transfected with a vector encoding the chimeric protein GFP-LC3. A Hela clone stably expressing the GFP-LC3 protein was selected.
Study of the Translocation of the LC3 Protein in Hela Human Cells, Measured by Image Analysis Cytometry (Test C):
On day 2, the cells are washed twice with EBSS (Sigma #E3024). The cells are then incubated in EBSS, 10 μM of hydroxychloroquine and test products for 2 h at 37° C. in the presence of 5% CO2. The molecules are diluted in dimethyl sulphoxide (DMSO Sigma #D2650), the final DMSO percentage being 0.1%.
After this incubation, the cells are fixed with 4% paraformaldehyde (Sigma #HT501128 4 L) for 10 min. […] The 96-well plates are then read with the iCyte image analysis cytometer (Compucyte).
Two independent experiments make it possible to calculate the mean of the IC50 values.

Setting [4] is: Homo sapiens, PC-3, P-AKT-S473 in PC3 cells.

In general, inhibition refers to the relative decrease from the control value, in per cent. One may read the IC50 as the concentration that inhibits the measured activity by half.

On to `COc1cc(F)ccc1[C@H](O)CN1c2nc(N3CCOCC3)cc(=O)n2CC[C@H]1C(F)(F)F` [Example 52, 9-[(S)-2-(4-Fluoro-2-methoxyphenyl)-2-hydroxyethyl]-2-morpholin-4-yl-8-(S)-trifluoromethyl-6,7,8,9-tetrahydro-pyrimido[1,2-a]pyrimidin-4-one], for which, in assay [1], the inhibition at 0.1 µM turned out to be 75% and the inhibition at 1 µM amounted to 99%.
The matching figures for `O=c1cc(N2CCOCC2)nc2n1CC[C@@H](C(F)(F)F)N2C[C@@H](O)c1cccc(O)c1` [Example 49, 9-[(S)-2-Hydroxy-2-(3-hydroxyphenyl)ethyl]-2-morpholin-4-yl-8-(S)-trifluoromethyl-6,7,8,9-tetrahydropyrimido[1,2-a]pyrimidin-4-one]: 81% and 99%.
For `COc1ccccc1[C@H](O)CN1c2nc(N3CCOCC3)cc(=O)n2CC[C@H]1C(F)(F)F` [Example 51, 9-[(S)-2-Hydroxy-2-(2-methoxyphenyl)ethyl]-2-morpholin-4-yl-8-(S)-trifluoromethyl-6,7,8,9-tetrahydropyrimido[1,2-a]pyrimidin-4-one], in assay [1], the inhibition at 0.1 µM turned out to be 75% and the inhibition at 1 µM was determined as 99%.
With `CC(c1ccc(F)cc1)N1c2nc(N3CCOCC3)cc(=O)n2CC[C@H]1C(F)(F)F` (single isomer, unassigned) [Example 34, (8S)-9-[(1R or 1S)-1-(4-fluorophenyl)ethyl]-2-(morpholin-4-yl)-8-(trifluoromethyl)-6,7,8,9-tetrahydro-4H-pyrimido[1,2-a]pyrimidin-4-one], the IC50 in assay [2] (P-AKT-S473 in PC3 cells) is 22 nM; in assay [3] it was 35 nM.
For the molecule `O=c1cc(N2CCOCC2)nc2n1CC[C@@H](C(F)(F)F)N2Cc1ccc(F)cc1F` [Example 30, (8S)-9-(2,4-difluorobenzyl)-2-(morpholin-4-yl)-8-(trifluoro-methyl)-6,7,8,9-tetrahydro-4H-pyrimido[1,2-a]pyrimidin-4-one], the IC50 in assay [2] (setting [4]) turned out to be 43 nM; in assay [3] (Homo sapiens, HeLa), 212 nM.
As for `O=c1cc(N2CCOCC2)nc2n1CC[C@@H](C(F)(F)F)N2Cc1cccc(F)c1` [Example 23, (8S)-9-(3-fluorobenzyl)-2-(morpholin-4-yl)-8-(trifluoromethyl)-6,7,8,9-tetrahydro-4H-pyrimido[1,2-a]pyrimidin-4-one], the concentration for half-maximal inhibition (IC50) amounted to 24 nM in assay [2] (setting [4]) and 663 nM in assay [3] (Homo sapiens, HeLa).
The matching figures for `O=c1cc(N2CCOCC2)nc2n1CC[C@@H](C(F)(F)F)N2CCc1cccc(F)c1` [Example 40, (8S)-9-[2-(3-fluorophenyl)ethyl]-2-(morpholin-4-yl)-8-(trifluoromethyl)-6,7,8,9-tetrahydro-4 H-pyrimido[1,2-a]pyrimidin-4-one]: 3 nM and 82 nM.
Take `O=c1cc(N2CCOCC2)nc2n1CC[C@@H](C(F)(F)F)N2Cc1ccccc1Cl` [Example 22, (8S)-9-(2-chlorobenzyl)-2-(morpholin-4-yl)-8-(trifluoro-methyl)-6,7,8,9-tetrahydro-4H-pyrimido[1,2-a]pyrimidin-4-one]: the IC50 in assay [2] (setting [4]) is 23 nM; in assay [3] (Homo sapiens, HeLa) it was 785 nM.
The matching figures for `O=C(c1c(F)cccc1F)N1c2nc(N3CCOCC3)cc(=O)n2CC[C@H]1C(F)(F)F` [Example 43, (8S)-9-[(2,6-difluorophenyl)carbonyl]-2-(morpholin-4-yl)-8-(trifluoromethyl)-6,7,8,9-tetrahydro-4 H-pyrimido[1,2-a]pyrimidin-4-one]: 16 nM and 986 nM.
On to `Cc1ccc(N2c3nc(N4CCOCC4)cc(=O)n3CC[C@H]2C(F)(F)F)cc1` [Example 21, (8S)-9-(4-methylphenyl)-2-(morpholin-4-yl)-8-(trifluoro-methyl)-6,7,8,9-tetrahydro-4H-pyrimido[1,2-a]pyrimidin-4-one], for which the IC50 in assay [2] (setting [4]) came out at 24 nM; in assay [3] (Homo sapiens, HeLa), 157 nM.

(Values after patent US8846670B2, “1,2,3,4-tetrahydro-pyrimido(1,2-a)pyrimidin-6-one derivatives, preparation thereof, and pharmaceutical use thereof” (priority 2009, dated 2014).)
